{"source": "patent US11866482B2", "about": "“System and method for homogenous GPCR phosphorylation and identification of beta-2 adrenergic receptor positive allosteric modulators” (Duke University, priority 2018, dated 2024)", "key": {"M2Rpp [1]": {"target": "T1, M2Rpp (Homo sapiens, UniProt P08172)", "T1 sequence (P08172 1-466)": "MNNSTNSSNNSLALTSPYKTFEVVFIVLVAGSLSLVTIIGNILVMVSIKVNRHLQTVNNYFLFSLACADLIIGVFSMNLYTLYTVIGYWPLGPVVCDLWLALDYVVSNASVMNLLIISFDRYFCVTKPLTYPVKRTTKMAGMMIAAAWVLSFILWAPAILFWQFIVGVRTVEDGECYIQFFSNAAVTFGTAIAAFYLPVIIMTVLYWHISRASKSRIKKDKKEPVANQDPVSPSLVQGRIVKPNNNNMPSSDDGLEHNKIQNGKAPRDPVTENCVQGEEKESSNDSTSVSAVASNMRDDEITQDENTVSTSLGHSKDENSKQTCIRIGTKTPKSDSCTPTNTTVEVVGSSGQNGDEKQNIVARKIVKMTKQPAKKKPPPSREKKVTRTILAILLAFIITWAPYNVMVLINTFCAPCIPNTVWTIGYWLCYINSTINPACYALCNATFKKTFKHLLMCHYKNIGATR", "test": "[3H]-NMS competition binding, sortase-ligated M2Rpp HDLs"}, "β2AR [2]": {"target": "T2, β2AR (Homo sapiens, UniProt P07550)", "test": "ISO-induced G protein-mediated cAMP production, endogenously expressed β2AR", "format": "cell-based", "conditions": "FIGS. 15A and 15B"}, "β2AR [3]": {"target": "β2AR (Homo sapiens, UniProt P07550, N187E)", "test": "ISO competition binding against 125I-CYP in presence of PAM, β2AR reconstituted in HDL particles", "conditions": "ISO vs 125I-CYP"}, "β2AR [4]": {"target": "T2, β2AR", "test": "3H-FEN agonist binding to β2AR in cell membranes", "parameters": "host or cells: cell membranes"}, "M2Rpp [5]": {"target": "T1, M2Rpp", "test": "In vitro G protein GTPase assay, M2Rpp HDLs (Gi)", "conditions": "FIG. 11"}, "MORpp [6]": {"target": "T3, MORpp (Homo sapiens, UniProt P35372)", "T3 sequence (P35372 with tags, fused parts or gaps)": "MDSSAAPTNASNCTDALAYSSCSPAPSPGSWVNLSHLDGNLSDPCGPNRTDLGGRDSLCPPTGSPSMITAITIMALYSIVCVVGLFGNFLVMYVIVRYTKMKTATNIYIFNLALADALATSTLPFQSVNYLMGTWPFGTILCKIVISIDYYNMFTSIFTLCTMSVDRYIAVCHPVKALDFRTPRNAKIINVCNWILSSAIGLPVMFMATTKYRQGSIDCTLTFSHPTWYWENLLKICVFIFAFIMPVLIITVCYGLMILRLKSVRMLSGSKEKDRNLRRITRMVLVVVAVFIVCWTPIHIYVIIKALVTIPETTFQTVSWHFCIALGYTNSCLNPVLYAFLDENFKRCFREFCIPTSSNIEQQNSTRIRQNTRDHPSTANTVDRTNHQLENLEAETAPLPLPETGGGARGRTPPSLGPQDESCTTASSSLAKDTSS", "test": "In vitro G protein GTPase assay, MORpp HDLs (Gi)", "conditions": "FIG. 11"}, "MORpp [7]": {"target": "T3, MORpp", "test": "[3H]-Naloxone competition binding, sortase-ligated MORpp HDLs"}, "β1AR": {"target": "β1AR (Homo sapiens, UniProt P08588)", "sequence (P08588 whole entry)": "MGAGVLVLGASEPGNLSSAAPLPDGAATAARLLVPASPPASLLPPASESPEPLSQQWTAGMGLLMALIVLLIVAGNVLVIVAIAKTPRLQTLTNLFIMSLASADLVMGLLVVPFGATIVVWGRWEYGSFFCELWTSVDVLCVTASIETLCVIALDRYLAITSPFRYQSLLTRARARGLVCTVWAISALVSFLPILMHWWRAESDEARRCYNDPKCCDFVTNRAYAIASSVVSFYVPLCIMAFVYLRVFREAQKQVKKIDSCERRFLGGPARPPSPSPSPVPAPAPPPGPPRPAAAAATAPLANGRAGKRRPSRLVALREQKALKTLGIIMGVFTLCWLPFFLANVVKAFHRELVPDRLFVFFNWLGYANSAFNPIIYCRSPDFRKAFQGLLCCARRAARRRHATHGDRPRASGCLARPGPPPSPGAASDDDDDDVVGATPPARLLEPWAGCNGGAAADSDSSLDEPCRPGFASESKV", "test": "β1AR-mediated cAMP production", "format": "cell-based", "conditions": "FIG. 21B"}}, "data": [{"smiles": "C[N+](C)(C)CCOC(N)=O", "note": "[carbachol]", "values": [{"measurement": "increase in agonist affinity by βarr1", "setting": "M2Rpp [1]", "result": 57, "unit": "fold"}, {"measurement": "increase in agonist affinity induced by G protein", "setting": "M2Rpp [1]; Gi heterotrimer", "result": "> 100", "unit": "fold"}]}, {"smiles": "COc1ccc(Sc2ccc(S(=O)(=O)Nc3cccc(F)c3)cc2C(=O)N[C@@H](CC(N)=O)Cc2ccc(C(C)(C)C)cc2)cc1", "note": "[Cmpd-43, (R)—N-(4-Amino-1-(4-(tert-butyl)phenyl)-4-oxobutan-2-yl)-5-(N-(3-fluorophenyl)sulfamoyl)-2-((4-methoxyphenyl)thio)benzamide]", "values": [{"measurement": "effect on ISO-induced cAMP production", "setting": "β2AR [2]", "result": "increased the maximal response induced by ISO as well as potentiated the EC50 value"}, {"measurement": "potentiation of the IC50 value of ISO", "setting": "β2AR [3]", "result": "~30", "unit": "fold"}, {"measurement": "increase in 3H-FEN binding to the β2AR", "setting": "β2AR [4]", "result": "dose-dependently increase the binding"}]}, {"smiles": "C[N+](C)(C)CC#CCOC1=NOCC1", "note": "[iperoxo]", "values": [{"measurement": "G protein activation (GTP hydrolysis)", "setting": "M2Rpp [5]", "result": "increases G protein activation"}, {"measurement": "effects of G protein and βarr on agonist affinity", "setting": "M2Rpp [1]; FIGS. 9E and 9F", "result": "comparable effects of G protein and βarr"}]}, {"smiles": "C[C@@H](NC(=O)[C@@H](N)Cc1ccc(O)cc1)C(=O)NCC(=O)N(C)[C@@H](Cc1ccccc1)C(=O)NCCO", "note": "[DAMGO]", "values": [{"measurement": "G protein activation (GTP hydrolysis)", "setting": "MORpp [6]", "result": "increases G protein activation"}, {"measurement": "increase in agonist affinity by βarr1", "setting": "MORpp [7]", "result": 2, "unit": "fold"}, {"measurement": "increase in agonist affinity induced by G protein", "setting": "MORpp [7]; Gi heterotrimer", "result": "> 100", "unit": "fold"}]}, {"smiles": "COc1ccc(Sc2ccc(S(=O)(=O)N(C)C(C)C)cc2C(=O)N[C@@H](CC(N)=O)Cc2ccc(C(C)(C)C)cc2)cc1", "note": "[Cmpd-6, (R)—N-(4-Amino-1-(4-(tert-butyl)phenyl)-4-oxobutan-2-yl)-5-(N-isopropyl-N-methylsulfamoyl)-2-((4-methoxyphenyl)thio)benzamide]", "values": [{"measurement": "changes in ISO dose response pattern of cAMP production", "setting": "β1AR", "result": "Marginal changes"}]}]}
